In ChEMBL document CHEMBL1131969, “Quinoline-2,4-dicarboxylic acids: synthesis and evaluation as inhibitors of the glutamate vesicular transport system” (Bioorg Med Chem Lett, 1999):

Experiments:
[1] = Compound was evaluated for the kinetic parameter (Km); assay type: ADME
[2] = Compound was evaluated for the kinetic parameter Vmax (maximum velocity); assay type: ADME

Km [1]: 1.65 µM
Vmax [2]: 18.3 pM/min/mg
Compound: N[C@@H](CCC(=O)O)C(=O)O [GLUTAMIC ACID]
